# Several values for one entry are separate records, joined by “and”; a condition that tells them apart may be missing. Identical values can stand only once. Entries after “also recorded” stand apart in the source; their conditions may differ.
# Legend:
# [1] = tested on: UB/OC-1 cells; test: ROS generation by H2DCFDA fluorescence, confocal microscopy; format: cell-based
# Source text: Imaging of ROS generation was done as previously described (P. Puntambekar et al., Essential role of Rac1/NADPH oxidase in nerve growth factor induction of TRPV1 expression, J. NEUROCHEM. 95: 1689-1703 (2005)).
# [2] = tested on: NOX3 mRNA; test: NOX3 mRNA by real time RT-PCR in UB/OC-1 cells; format: cell-based
# Experimental: RNA was isolated by adding 1 ml TRI reagent to 100 mg of cochlear tissue or 0.5 ml TRI reagent per well of each six well plate. Tissues were homogenized in TRI reagent using a Polytron (setting 7, 15 sec) and centrifuged at 12,000×g for 10 min at 4° C. The remainder of the procedure was identical to that described in D. Mukherjea et al., NEUROSCIENCE 139:733-740 (2006).
# (§1) For real time reverse transcriptase polymerase chain reaction (RT-PCR), one microgram of total RNA was converted to cDNA using iScript cDNA Synthesis Kit (Bio-Rad, Hercules, Calif.) and sample preparations were performed essentially as previously described (D. Mukherjea et al., NEUROSCIENCE 139:733-740 (2006)). Amplification and detection was performed with the Cepheid Smart Cycler Detection System. On completion of amplification, the melting curve analysis was performed by cooling the reaction to 60° C. and then heating slowly 95° C., according to the instruction of manufacturer (Cepheid systems). The cycle number at which the sample reaches the threshold fluorescent intensity is termed the cycle threshold (Ct). The relative change in mRNA levels between untreated control (1) and treated sample (2) was measured using the formula: 2-ΔΔCt (R. Soong et al., Quantitative reverse transcription-polymerase chain reaction detection of cytokeratin 20 in noncolorectal lymph nodes, CLIN. CANCER RES. 7:3423-3429 (2001)). Relative change in mRNA levels between samples was expressed as a percentage of normal control. Negative controls for both target gene and GAPDH was used for all reaction groups. Real time PCR products were analyzed on a 2% agarose gel to verify the correct product sizes and visualization of the amplified product was effected using the dye SyBr Green I (Molecular Probes, Eugene, Oreg.).
# [3] = tested on: NOX3; test: NOX3 immunoreactivity in cochlea sections; format: in vivo, male Wistar rats
# [4] = tested on: KIM-1 mRNA; test: KIM-1 mRNA by real time RT-PCR in UB/OC-1 cells; format: cell-based
# Experimental: as §1, with “Negative controls for both target gene and GAPDH was used for all reaction groups.” left out, “Oreg.). […]” for “Oreg.).”
# [5] = tested on: TRPV1 mRNA; test: TRPV1 mRNA by real time RT-PCR in UB/OC-1 cells; format: cell-based
# Experimental: as §1, with “Negative controls for both target gene and GAPDH was used for all reaction groups.” left out, “Oreg.). […]” for “Oreg.).”
# [6] = tested on: KIM-1; test: KIM-1 immunoreactivity in cochlea sections; format: in vivo, male Wistar rats; settings: 72 h
# Experimental: Cochleas were harvested 72 h later, fixed in 4% paraformaldehyde, decalcified, sectioned and stained for KIM1 immunoreactivity. FIG. 3C is a panel of photomicrographs of the cochlea sections from following the different treatment conditions and stained for KIM-1 immunoreactivity. […] (SVA-stria vascularis, OHC-outer hair cell, RM-Reissner's membrane, SG—spiral ganglion).
# [7] = tested on: UB/OC-1 cells; test: Intracellular Ca2+ release by Fluo-4AM imaging; format: cell-based
# Experimental: UB/OC-1 cells were grown on glass coverslips. […] After incubation, cells were washed once with physiological buffer and then imaged by a Fluoview confocal microscope (Olympus Imaging America Inc., Center Valley, Pa., USA).
# [8] = tested on: UB/OC-1 hair cells; test: Cell viability by trypan blue staining; format: cell-based
# Experimental: Cells were then treated with trypan blue and the number of viable cells per high power field determined and expressed as a percent of total cell per field. […] Data are present as the mean±standard error from four independent coverslips.
# [9] = tested on: AT6.1 rat prostate cancer cells; test: Cisplatin killing of tumor cells (imaging); format: cell-based
# Source text: Cells were fixed with 4% paraformaldehyde and imaged. FIG. 5B is a panel of photomicrographs of the cell images.
# [10] = tested on: TRP and P2x receptor channels in UB/OC-1 cells; test: FM1-43 dye uptake via TRP and P2x channels; format: cell-based; settings: for basal FM1-43 uptake (fluorescence): added alone
# Source text: FM1-43 is selectively taken up by cells expressing the TRP and P2x receptor channels.
# Cells were scanned every 6 sec by Argon laser (480 nm) and at the 6th scan FM1-43 dye was dropped on the cells. FIG. 6 is panel of photomicrographs of the cells following dye exposure. […] Each gray-scale image to the right of each fluorescence image is the differential interference constrast image for the cells shown in the corresponding fluorescence image.
# [11] = tested on: outer hair cells of the organ of Corti; test: Outer hair cell damage by scanning electron microscopy, i.p. transplatin; format: in vivo, rat; settings: 72 h
# [12] = tested on: KIM-1 mRNA; test: Kidney KIM-1 mRNA by real time RT-PCR; format: in vivo, male Wistar rats; settings: 72 h
# Source text: (§2) Kidneys were harvested, total RNA was isolated, reverse transcribed and real time RT-PCR performed substantially as described herein above. FIG. 8A is a bar graph of the increase in mRNA expression for each of KIM-1 (green), NOX3 (blue) and TRPV1 (red) observed. […] Attenuation of these markers by transplatin is indicative of its nephroprotective role.
# [13] = tested on: NOX3 mRNA; test: Kidney NOX3 mRNA by real time RT-PCR; format: in vivo, male Wistar rats; settings: 72 h
# Source text: as §2
# [14] = tested on: TRPV1 mRNA; test: Kidney TRPV1 mRNA by real time RT-PCR; format: in vivo, male Wistar rats; settings: 72 h
# Source text: as §2
# [15] = tested on: outer hair cells of the organ of Corti; test: Outer hair cell damage/loss by SEM, trans-tympanic transplatin; format: in vivo, Wistar rats
# Experimental: Post-treatment ABRs were conducted 72 h later. […] This was abrogated by pretreatment with trans-tympanic transplatin. […] Arrows indicate areas of damage to outer hair cells.
# [16] = Cisplatin-induced hearing loss, ABR threshold shifts, i.p. transplatin; format: in vivo, male Wistar rats
# Source text: Data are presented as the mean±standard error of 8 ears examined from 4 animals per group.
# [17] = Body weight loss; format: in vivo, rat; settings: data not shown
# [18] = tested on: dorsal root ganglion (DRG) cells; test: NGF-induced ROS generation in dorsal root ganglion cells (H2DCFDA); format: cell-based, neonatal mice; settings: transplatin 2.5 μM 30 min prior to NGF 100 ng/ml
# Experimental: Recent studies have shown that ROS generation is the single most important mediator of inflammation. Dorsal root ganglion (DRG) cells isolated from neonatal mice have shown increased ROS generation in response to nerve growth factor (NGF; data not shown). […] Fluorescent images were obtained at 0 sec and collected over a period of 5 min after addition of NGF (100 ng/ml). NGF generated ROS is shown by changes in fluorescence intensity over time.
# [19] = tested on: HEK-293 cells stably transfected with TRPV1 receptor; test: Capsaicin-induced ROS generation in HEK-VR1 cells; format: cell-based; settings: transplatin 2.5 μM pre-treatment; data not shown
# Source text: Thus, transplatin can be useful in the treatment of inflammatory conditions, such as arthritis, inflammatory and chronic pain and cancer pain.
# [20] = Body temperature after i.p. transplatin; format: in vivo, rat; settings: transplatin 5.5 mg/kg i.p., every 30 min for 150 min, 2 rats
# Experimental: TRPV1 antagonists were initially developed as novel treatments for inflammatory pain. However, it was observed that the administration of classical TRPV1 antagonists produced hyperthermia in animals and human (N. R. Gavva, Body-temperature maintenance as the predominant function of the vanilloid receptor TRPV1. TRENDS PHARMACOL SCI 29:550-557 (2007)), underscoring a role of TRPV1 in the control of body temperature. […] Body temperature was then recorded every 30 min for 150 min. FIG. 11 is a graph of the results observed in two rats (Tp) and a control animal (PBS).
# [21] = tested on: cellular DNA; settings: cited from earlier work
# [22] = transplatin 1, 2.5, 10 μM 30 min prior to cisplatin 5 μM 24 h
# [23] = transplatin 5.5 mg/kg i.p. followed by cisplatin 11 mg/kg i.p.
# [24] = transplatin 1 μM 30 min prior to cisplatin 5 μM
# [25] = transplatin 1 mg/kg i.p. then cisplatin 11 mg/kg i.p.
# [26] = transplatin 5.5 mg/kg i.p. alone
# [27] = trans-tympanic transplatin 50 μl of 0.5 mg/ml, then cisplatin 11 mg/kg i.p.
smiles,measurement,setting,value
"N.N.[Cl][Pt][Cl] [cisplatin, reference compound]",ROS generation (H2DCFDA fluorescence),"[1]; cisplatin 2.5 μM, 30 min",marked increase in ROS generation; also recorded: increases ROS generation
same,NOX3 mRNA,[2]; cisplatin 5 μM,increase in NOX3 mRNA
same,"NOX3 immunoreactivity in cochlea (OHC, stria vascularis, spiral ganglion)","[3]; cisplatin 11 mg/kg i.p., 72 h",increased NOX3 protein
same,increase in KIM-1 mRNA expression over vehicle treated controls,"[4]; cisplatin 5 μM, 24 h",4 fold and 4±0.5 fold
same,increase in TRPV1 mRNA expression over vehicle treated controls,"[5]; cisplatin 5 μM, 24 h",3.6 fold and 3.5±0.7 fold
same,KIM-1 immunolabeling in organ of Corti / cochlea sections,[6]; cisplatin 11 mg/kg i.p.,induction of KIM-1 immunolabeling
same,intracellular Ca2+ (Fluo-4AM fluorescence),"[7]; cisplatin 5 μM, 30 min",increased fluorescence
same,cell death,"[8]; cisplatin 20 μM, 24 h",~80%
same,cell loss,"[9]; cisplatin 100 μM, 24 h",~80%
same,uptake of FM1-43 dye,"[10]; cisplatin 5 μM alone, 30 min",increased uptake of FM1-43 dye
same,"outer hair cells damaged per field, basal turn of organ of Corti",[11]; cisplatin 11 mg/kg i.p.,~40%
same,kidney KIM-1 mRNA expression,[12]; cisplatin 11 mg/kg i.p.,50 fold
same,kidney NOX3 mRNA expression,[13]; cisplatin 11 mg/kg i.p.,4 fold
same,kidney TRPV1 mRNA expression,[14]; cisplatin 11 mg/kg i.p.,6 fold
same,outer hair cell damage/loss,"[15]; cisplatin 11 mg/kg i.p., 72 h",~70%
"N.N.N.N.N.N.N.N.N.N.N.N.N.N.[Cl-].[Cl-].[Cl-].[Cl-].[Cl-].[Cl-].[O-2].[O-2].[Ru+3].[Ru+3].[Ru+4] [ruthenium red, reference compound]",basal FM1-43 uptake (fluorescence),[10],less inhibition of basal fluorescence than transplatin
"N.N.[Cl][Pt][Cl] [transplatin, trans-diamminedichloroplatinum (II)]",cisplatin-induced increase in ROS generation,"[1]; pretreatment with transplatin 1 μM, then cisplatin 2.5 μM 30 min",attenuated; also recorded: significantly reduced
same,ROS generation,[1]; transplatin administered alone,did not stimulate ROS generation
same,cisplatin-induced increase in NOX3 mRNA,[2]; [22],attenuated; also recorded: down regulates the increase in NOX3 mRNA
same,NOX3 mRNA expression,"[2]; transplatin alone (1, 2.5 μM)",almost no expression of NOX3 mRNA
same,cisplatin-induced increase in NOX3 in cochlea,"[3]; transplatin 5.5 mg/kg i.p. immediately before cisplatin 11 mg/kg i.p., 72 h",reduced
same,NOX3 expression in cochlea vs vehicle control,[3]; transplatin alone,did not increase NOX3 expression
same,cisplatin-induced KIM-1 mRNA,[4]; [22],attenuated to control levels
same,cisplatin-induced TRPV1 mRNA expression,"[5]; transplatin 1, 2.5, 10 μM 30 min prior to cisplatin 5 μM 24 h, 10 μM best inhibition",attenuated; also recorded: abrogated by transplatin at higher concentrations
same,cisplatin-induced KIM-1 immunolabeling in cochlea,[6]; [23],reduced; also recorded: decreased
same,cisplatin-induced increase in intracellular Ca2+,[7]; [24],abrogated
same,cell survival,"[8]; transplatin 1, 2.5, 10 μM 30 min prior to cisplatin 20 μM 24 h, depending on dose",80-97%
same,cell survival compared to vehicle control,[9]; transplatin alone,did not cause significant change in cell survival
same,basal FM1-43 uptake (fluorescence),[10],reduced fluorescence below that of the control cells
same,FM1-43 dye entry after cisplatin,[10]; [24],decreased entry of the dye
same,animals protected,[16]; [25],75%
same,reductions in ABR thresholds (number protected),[16]; [25],6 of 8
same,auditory protection,[16]; transplatin 3 mg/kg i.p. then cisplatin 11 mg/kg i.p.,complete protection
same,auditory protection,[16]; transplatin 5.5 mg/kg i.p. then cisplatin 11 mg/kg i.p.,complete protection
same,ABR thresholds,[16]; transplatin alone,did not affect the ABR thresholds
same,"outer hair cells damaged per field, basal turn of organ of Corti",[11]; transplatin 5.5 mg/kg i.p. pretreatment then cisplatin 11 mg/kg i.p.,below 10%
same,weight loss,[17]; transplatin by itself,did not produce weight loss
same,cisplatin-mediated weight loss,[17]; transplatin with cisplatin,did not inhibit cisplatin-mediated weight loss
same,kidney KIM-1 mRNA expression compared to PBS controls,[12]; [26],1.7 fold
same,kidney KIM-1 mRNA expression,[12]; [23],1.1 fold
same,kidney NOX3 mRNA expression compared to PBS controls,[13]; [26],1.3 fold
same,kidney NOX3 mRNA expression,[13]; [23],1.7 fold
same,kidney TRPV1 mRNA expression compared to PBS controls,[14]; [26],0.5 fold
same,kidney TRPV1 mRNA expression,[14]; [23],1.5 fold
same,NGF-induced ROS generation,[18],inhibited ROS generation
same,ROS generation by 10 μM capsaicin,[19],inhibited
same,cisplatin-induced outer hair cell damage (SEM morphology),[15]; [27],almost completely abrogated
same,outer hair cell damage/loss,[15]; [27],~7%
same,body temperature,[20],did not produce any apparent increase in body temperature; also recorded: no apparent trend of higher body temperatures
same,time of maximum DNA binding,[21],6 h

# — patent US9248150B2 (priority 2009, dated 2016)
